Read-outs that look alike come from different tables or passages of the source.
Key:
[1] = normal air humidity conditions, within some hours, stated as known, cited from earlier work
[2] = stability of the crystalline structure (X-ray powder diffraction pattern) under normal air humidity conditions; type: physicochemical; details: kept for several weeks under normal air humidity conditions
Protocol: “Stable monohydrate” as used herein includes a compound of formula I in the form of a monohydrate which is crystalline and which maintains its crystalline structure for at least 24 hours, e.g. for several weeks, under normal, e.g. normal air humidity, conditions. The crystalline structure of azithromycin in the form of a monohydrate may be determined by its (known) X-ray powder diffraction pattern. The X-ray powder diffraction pattern and the IR spectrum of azithromycin in the form of a monohydrate obtained according to the following examples corresponding to that of known (unstable) azithromycin in the form of a monohydrate.

CC[C@H]1OC(=O)[C@H](C)[C@@H](O[C@H]2C[C@@](C)(OC)[C@@H](O)[C@H](C)O2)[C@H](C)[C@@H](O[C@@H]2O[C@H](C)C[C@H](N(C)C)[C@H]2O)[C@](C)(O)C[C@@H](C)CN(C)[C@H](C)[C@@H](O)[C@]1(C)O [azithromycin in the form of a dihydrate, 9-deoxo-9a-aza-9a-methyl-9a-homoerythromycin A, reference compound]
stability of the crystal structure [1]: not to break down within some hours

CC[C@H]1OC(=O)[C@H](C)[C@@H](O[C@H]2C[C@@](C)(OC)[C@@H](O)[C@H](C)O2)[C@H](C)[C@@H](O[C@@H]2O[C@H](C)C[C@H](N(C)C)[C@H]2O)[C@](C)(O)C[C@@H](C)CN(C)[C@H](C)[C@@H](O)[C@]1(C)O [9-deoxo-9a-aza-9a-methyl-9a-homoerythromycin A]
stability of the crystal structure ([1]; listed as azithromycin in the form of a monohydrate): unstable
crystallinity and X-ray powder diffraction pattern on storage [2]: maintains its crystallinity and its X-ray powder diffraction pattern

Source: patent publication US6703372B1, “Macrolides” (Biochemie S.A., priority 1999, dated 2004)
